Assay results: paper PMC6934184, “Selective DNA-PKcs inhibition extends the therapeutic index of localized radiotherapy and chemotherapy” (The Journal of Clinical Investigation, 2019)

Target: T1, EPHB4 (Homo sapiens, UniProt P54760)
T1 construct: purchased Thermo Fisher Scientific (Life Technologies) SelectScreen
Experiment: SelectScreen Z'LYTE
Assay type: biochemical
In short: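 NU5455 was profiled across the SelectScreen Broad panel of kinase activity and binding assays. Z'LYTE reactions such as CSF1R ran at apparent Km ATP, while the Adapta CAMK1 assay used ATP listed as 10. Values are given as percent.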

T1 sequence (P54760 16-987): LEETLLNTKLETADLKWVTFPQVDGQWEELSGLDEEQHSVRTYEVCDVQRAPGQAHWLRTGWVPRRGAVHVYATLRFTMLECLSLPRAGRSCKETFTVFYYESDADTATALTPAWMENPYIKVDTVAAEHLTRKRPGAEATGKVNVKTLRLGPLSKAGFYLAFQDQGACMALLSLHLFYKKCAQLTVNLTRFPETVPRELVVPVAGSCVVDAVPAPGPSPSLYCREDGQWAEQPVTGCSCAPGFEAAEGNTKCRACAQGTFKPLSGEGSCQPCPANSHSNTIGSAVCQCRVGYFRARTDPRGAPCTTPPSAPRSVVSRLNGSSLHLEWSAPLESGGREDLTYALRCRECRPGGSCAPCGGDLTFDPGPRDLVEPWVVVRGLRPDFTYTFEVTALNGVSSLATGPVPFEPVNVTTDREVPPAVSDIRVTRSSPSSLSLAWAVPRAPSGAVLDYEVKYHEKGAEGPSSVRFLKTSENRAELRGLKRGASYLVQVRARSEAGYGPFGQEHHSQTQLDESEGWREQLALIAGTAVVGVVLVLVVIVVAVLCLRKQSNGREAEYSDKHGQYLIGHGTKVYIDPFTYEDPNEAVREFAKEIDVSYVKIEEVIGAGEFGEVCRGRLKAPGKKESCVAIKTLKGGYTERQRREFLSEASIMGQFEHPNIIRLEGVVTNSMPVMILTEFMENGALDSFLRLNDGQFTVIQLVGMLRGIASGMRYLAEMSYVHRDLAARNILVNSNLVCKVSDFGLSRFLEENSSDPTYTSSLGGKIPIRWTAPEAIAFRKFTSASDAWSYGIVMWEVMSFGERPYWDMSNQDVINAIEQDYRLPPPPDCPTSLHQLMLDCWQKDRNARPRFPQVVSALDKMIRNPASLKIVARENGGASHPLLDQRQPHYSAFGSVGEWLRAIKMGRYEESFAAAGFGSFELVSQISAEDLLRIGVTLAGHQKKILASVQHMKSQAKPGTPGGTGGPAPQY

Compound: CN(C(=O)CN1CCOCC1)c1ccc2sc3c(-c4cccc5c(=O)cc(N6CC7CCC(C6)O7)oc45)cccc3c2c1 [NU5455]
- inhibition at 1 µM: -5.3%
